This note sets out measurements from patent US10851115B2, “Heterocyclic compounds as RSV inhibitors” (Enanta Pharmaceuticals, Inc., priority 2017, dated 2020).

Molecules are shown by their SMILES.

This assay relates to Human RSV-A (“Long” strain). The assay is described as follows: RSV in vitro cytoprotection assay in HEp-2 cells (ATPlite readout). The settings on record: human respiratory syncytial virus, 96 h; HEp-2 cells, 4-day incubation, ATPlite; read-out: Human RSV-A (“Long” strain) EC50. Format: cell-based. An excerpt: RSV is a single stranded negative sense RNA virus that causes respiratory tract infections which can be dangerous to infants, the elderly, and immunosuppressed individuals. Currently there is no vaccine, and therapeutic options are both costly and of limited effectiveness. These approved treatments are Ribavirin, and Palivizumab/Synagis (a monoclonal antibody). RSV has two genotypes, A and B, which differ primarily in the structure of the virus' surface “G” attachment protein. Our current primary screen focusses on RSV-A and uses an in vitro cytoprotection assay where compounds are added in 2-fold dilutions to cells which are then subjected to fully replicative viral particles. Cell viability is measured several days later along with separate measurements of compound cytotoxicity. This report focuses on the results of our most recent screening of compounds.
HEp-2 cells, (originally derived from tumors grown in irradiated-cortisonised weanling rats that had been injected with epidermoid carcinoma tissue from a person's larynx, but later found to be indistinguishable from HeLa cells by PCR DNA analysis), were used for the culturing of genotype A, “Long” strain RSV. Flasks were inoculated with RSV and viral stocks were collected once cytopathic effect (CPE) was greater than 90%. Viral stocks in 25% sucrose media were snap frozen using liquid nitrogen to increase viral stability. Viral stock titers were quantified by tissue culture infectious dose 50% (TCID50) using 8,000 cells per well and 3-fold viral dilutions across a 96-well plate, cultured for 4 days.
Following extensive parameter testing, the final assay is run as follows: HEp-2 cells are seeded into the inner 60 wells of a 96-well plate at 8,000 cells per well in a volume of 50 μL using Growth Media (DMEM without phenol red, 1% L-Glut, 1% Penn/Strep, 1% nonessential amino acids, 10% FBS). 2-Fold serial dilutions of control and test compounds are added to the wells in duplicate in a total volume of 25 μL. Viral stock is then added to the wells in a volume of 25 μL, bringing the total volume of each well to 100 μL. Each 96-well plate has a control column of 6 wells with cells and virus but no compound (negative control, max CPE), a column with cells but no compound or virus (positive control, minimum CPE), and a column with no cells or virus or compound (background plate/reagent control). The control wells with cells but no virus are given an additional 25 uL of growth media containing an equal quantity of sucrose as those wells receiving the viral stock in order to keep consistent in media and volume conditions. The outer wells of the plate are filled with 125 μL of growth media to act as a thermal and evaporative moat around the test wells. Following a 4-day incubation period, the plates are read using ATPlite (50 uL added per well), which quantifies the amount of ATP (a measure of cell health) present in each well. Assay plates are read using the Envision luminometer. In parallel, cytotoxicity is examined on an additional 96-well plate treated in an identical manner, but substituting the 25 μL of viral stock for 25 μL of growth media. […] EC50 ranges are as follows: A<0.01 μM; B 0.01-0.05 μM; C>0.05 μM.
As for `Cc1ccc(C(=O)Nc2ccc(C(=O)N3CCc4c(sc(-c5nc6cccc(F)c6[nH]5)c4F)-c4ncccc43)cc2)c(N2CC3(CCOCC3)C2)n1` [Example 85], the EC50 is less than 10 nM.
As for `Cc1cnc(N2CC3(CCOCC3)C2)c(C(=O)Nc2ccc(C(=O)N3CCc4cc(NC(=O)c5ccccc5)sc4-c4ncccc43)cc2)c1` [Example 155], the figure is less than 10 nM; as for `Cc1cnc(N2CC3(CCOCC3)C2)c(C(=O)Nc2ccc(C(=O)N3CCc4cc(-c5ccc[nH]c5=O)oc4-c4ncc(F)cc43)cc2)c1` [Example 109], 10 to 50 nM.
Consider `Cc1cnc(N2CC3(CCOCC3)C2)c(C(=O)Nc2ccc(C(=O)N3CCc4cc(C(=O)Nc5c(F)cccc5F)sc4-c4ncccc43)cc2F)c1` [Example 47], for which the half-maximal effective concentration (EC50) fell in the range of 10 to 50 nM.
The result for `Cc1ccc(C(=O)Nc2ccc(C(=O)N3CCc4cc(NC(=O)c5ccccc5F)sc4-c4ncccc43)cc2)c(N2CC3(CCOCC3)C2)n1` [Example 160] reads less than 10 nM; that for `Cc1cnc(N2CC3(CCOCC3)C2)c(C(=O)Nc2ccc(C(=O)N3CCc4cc(C(=O)Nc5c(F)cccc5F)oc4-c4ncccc43)cc2)c1` [Example 115], 10 to 50 nM.
As for `Cc1cnc(N2CC3(CCOCC3)C2)c(C(=O)Nc2ccc(C(=O)N3CCc4cc(C(=O)Nc5ncc(C)s5)sc4-c4ncccc43)cc2)c1` [Example 16], the figure is less than 10 nM.
As to `Cc1cnc(N2CC3COCC3C2)c(C(=O)Nc2ccc(C(=O)N3CCc4cc(-c5nc6ccccc6[nH]5)sc4-c4ncc(F)cc43)cc2)c1` (centres unmarked) [Example 68], the EC50 lay within 10 to 50 nM.
As for `Cc1cnc(N2CC3(CCOCC3)C2)c(C(=O)Nc2ccc(C(=O)N3CCc4cc(C(=O)N[C@@H]5CCOC5)sc4-c4ncccc43)cc2)c1` [Example 17], the figure is 10 to 50 nM; as for `Cc1cnc(N2CC3(CCOCC3)C2)c(C(=O)Nc2ccc(C(=O)N3CCc4cc(C(=O)Nc5ncccc5F)sc4-c4ncccc43)cc2)c1` [Example 15], less than 10 nM; as for `Cc1cnc(N2CC3(CCOCC3)C2)c(C(=O)Nc2ccc(C(=O)N3CCc4cc(C(=O)Nc5c(F)cccc5C(F)(F)F)sc4-c4ncc(F)cc43)cc2)c1` [Example 67], greater than 50 nM.
As for `Cc1ccc2c(n1)-c1sc(C(=O)Nc3c(F)cccc3Cl)cc1CCN2C(=O)c1ccc(NC(=O)c2ccc(C)nc2N2CC3(CCOCC3)C2)cc1` [Example 148], the figure is greater than 50 nM; as for `Cc1cnc(N2CC3(CCOCC3)C2)c(C(=O)Nc2ccc(C(=O)N3CCc4cc(C(=O)Nc5c(F)cccc5Cl)oc4-c4ncc(F)cc43)cc2)c1` [Example 101], less than 10 nM; as for `Cc1cnc(N2CC3(CCOCC3)C2)c(C(=O)Nc2ccc(C(=O)N3CCc4cc(C(=O)Nc5cccnc5)sc4-c4ncccc43)cc2)c1` [Example 20], less than 10 nM.
The result for `O=C(Nc1c(F)cccc1F)c1cc2c(o1)-c1ncc(F)cc1N(C(=O)c1ccc(NC(=O)c3cc4c(nc3N3CC5(CCOCC5)C3)CCC4)cc1)CC2` [Example 104] reads less than 10 nM; that for `O=C(Nc1ccc(C(=O)N2CCc3cc(-c4nc5cccc(Cl)c5[nH]4)sc3-c3ncc(F)cc32)cc1)c1cccnc1N1CC2(CCOCC2)C1` [Example 57], 10 to 50 nM; that for `Cc1cnc(N2CC3(CCOCC3)C2)c(C(=O)Nc2ccc(C(=O)N3CCc4cc(-c5nc6ccccc6[nH]5)sc4-c4cc(C)sc43)cc2)c1` [Example 132], 10 to 50 nM.
Take `Cc1cccc(F)c1NC(=O)c1cc2c(s1)-c1ncc(F)cc1N(C(=O)c1ccc(NC(=O)c3cccnc3N3CC4(CCOCC4)C3)cc1)CC2` [Example 61]: the EC50 is less than 10 nM.
As for `Cc1cnc(N2CCC3(CC2)COC3)c(C(=O)Nc2ccc(C(=O)N3CCc4cc(-c5nc6cccc(F)c6[nH]5)sc4-c4ncccc43)cc2)c1` [Example 97], the figure is 10 to 50 nM.
As for `Cc1cnc(N2CC3(CCOCC3)C2)c(C(=O)Nc2ccc(C(=O)N3CCc4c(sc(-c5nc6cccc(F)c6[nH]5)c4F)-c4ncccc43)cc2)c1` [Example 78], the concentration giving a half-maximal response (EC50) is less than 10 nM.
Take `Cc1ccc(C(=O)Nc2ccc(C(=O)N3CCc4cc(-c5nc6ccccc6[nH]5)sc4-c4ncccc43)cc2)c(N2CC3(CCOCC3)C2)n1` [Example 42]: the 50% effective concentration (EC50) was less than 10 nM.
The result for `Cc1cnc(N2CC3(CCOCC3)C2)c(C(=O)Nc2ccc(C(=O)N3CCc4cc(C(=O)Nc5c(C)cccc5C#N)sc4-c4ncccc43)cc2)c1` [Example 8] reads less than 10 nM; that for `Cc1ccc(C(=O)Nc2ccc(C(=O)N3CCc4cc(C(=O)Nc5c(F)cccc5C(F)(F)F)sc4-c4ncccc43)cc2)c(N2CC3(CCOCC3)C2)n1` [Example 45], less than 10 nM.
As for `Cc1ccc(C(=O)Nc2ccc(C(=O)N3CCc4cc(C(=O)Nc5c(C)cccc5F)sc4-c4ncccc43)cc2)c(N2CC3(CCOCC3)C2)n1` [Example 41], the figure is less than 10 nM.
As for `O=C(Nc1ccc(C(=O)N2CCc3cc(-c4nc5ccccc5[nH]4)sc3-c3ncc(F)cc32)cc1)c1cccnc1N1CC2(CCOCC2)C1` [Example 54], the figure is 10 to 50 nM.
Take `Cc1cnc(N2CCC3(CC2)COC3)c(C(=O)Nc2ccc(C(=O)N3CCc4cc(C(=O)Nc5c(C)cccc5C#N)sc4-c4ncccc43)cc2)c1` [Example 92]: the concentration for a half-maximal effect (EC50) lay in the range of 10 to 50 nM.
As for `Cc1cnc(N2CC3(CCOCC3)C2)c(C(=O)Nc2ccc(C(=O)N3CCc4cc(C(=O)NCC5CCCO5)sc4-c4ncccc43)cc2)c1` (centres unmarked) [Example 29], the figure is less than 10 nM; as for `Cc1cnc(N2CC3(CCOCC3)C2)c(C(=O)Nc2ccc(C(=O)N3CCc4cc(-c5nc6cccc(F)c6[nH]5)sc4-c4ncc(F)cc43)cc2)c1` [Example 64], less than 10 nM; as for `Cc1cnc2c(c1)N(C(=O)c1ccc(NC(=O)c3cccnc3N3CC4(CCOCC4)C3)cc1)CCc1cc(C(=O)Nc3c(F)cccc3Cl)sc1-2` [Example 162], less than 10 nM.
As for `Cc1cnc(N2CC3(CCOCC3)C2)c(C(=O)Nc2ccc(C(=O)N3CCc4c(sc(C(=O)Nc5c(F)cccc5F)c4F)-c4ncccc43)cc2)c1` [Example 70, N-(2,6-difluorophenyl)-8-fluoro-5-(4-(5-methyl-2-(7-oxa-2-azaspiro[3.5]nonan-2-yl)nicotinamido)benzoyl)-6,7-dihydro-5H-pyrido[3,2-b]thieno[2,3-d]azepine-9-carboxamide], the figure is less than 10 nM; as for `O=C(Nc1c(F)cccc1F)c1cc2c(s1)-c1ncc(F)cc1N(C(=O)c1ccc(NC(=O)c3cccnc3N3CC4(CCOCC4)C3)cc1)CC2` [Example 55], less than 10 nM; as for `Cc1cnc(N2CC3(CCOCC3)C2)c(C(=O)Nc2ccc(C(=O)N3CCc4cc(C(=O)Nc5c(Cl)cccc5Cl)oc4-c4ncc(F)cc43)cc2)c1` [Example 100], 10 to 50 nM.
As for `Cc1cnc(N2CC3(CCOCC3)C2)c(C(=O)Nc2ccc(C(=O)N3CCc4cc(C(=O)Nc5ncccn5)sc4-c4ncccc43)cc2)c1` [Example 14], the figure is 10 to 50 nM; as for `Cc1cnc2c(c1)N(C(=O)c1ccc(NC(=O)c3cccnc3N3CC4(CCOCC4)C3)cc1)CCc1cc(C(=O)Nc3c(C)cccc3F)sc1-2` [Example 161], less than 10 nM; as for `Cc1cnc(N2CC3(CCOCC3)C2)c(C(=O)Nc2ccc(C(=O)N3CCc4cc(-c5nc6ccccc6[nH]5)oc4-c4ncccc43)cc2)c1` [Example 118], 10 to 50 nM.
For `Cc1cnc(N2CC3(CCOCC3)C2)c(C(=O)Nc2ccc(C(=O)N3CCc4cc(C(=O)Nc5c(F)cccc5C(F)(F)F)oc4-c4ccncc43)cc2)c1` [Example 126], the EC50 is greater than 50 nM.
The result for `O=C(Nc1ccc(C(=O)N2CCc3cc(-c4nc5ccccc5[nH]4)oc3-c3ncc(F)cc32)cc1)c1cc2c(nc1N1CC3(CCOCC3)C1)CCC2` [Example 108] reads 10 to 50 nM; that for `Cc1cnc(N2CC3(CCOCC3)C2)c(C(=O)Nc2ccc(C(=O)N3CCc4cc(C(=O)NCc5ccco5)sc4-c4ncccc43)cc2)c1` [Example 24], less than 10 nM.
Take `Cc1cnc(N2CC3(CCOCC3)C2)c(C(=O)Nc2ccc(C(=O)N3CCc4cc(C(=O)Nc5c(F)cccc5Cl)oc4-c4cccnc43)cc2)c1` [Example 113]: the EC50 is greater than 50 nM.
As for `O=C(Nc1c(F)cccc1F)c1cc2c(s1)-c1ccncc1N(C(=O)c1ccc(NC(=O)c3cccnc3N3CC4(CCOCC4)C3)cc1)CC2` [Example 1], the figure is greater than 50 nM; as for `Cc1cnc(N2CC3(CCOCC3)C2)c(C(=O)Nc2ccc(C(=O)N3CCc4cc(C(=O)Nc5c(F)cc(F)cc5Cl)sc4-c4ncc(F)cc43)cc2)c1` [Example 65], less than 10 nM.
